{"source": "patent US10336750B2", "about": "“Composition and methods for the treatment of CaMKK2-mediated disorders” (Duke University, priority 2015, dated 2019)", "origin": "cited, not measured here", "tested_on": "neovascular remodeling (NVR) in experimental laser-induced CNV", "conditions": "aged (16 month-old) mice, systemic depletion of macrophages, compared to sham control", "data": [{"smiles": "O=P(O)(O)C(Cl)(Cl)P(=O)(O)O", "note": "[clodronate]", "values": [{"measurement": "NVR phenotype, lesion size and fibrosis (choroidal flatmounts by FITC-dextran)", "result": "abrogation of the NVR phenotype, resulting in smaller lesions with less fibrosis"}]}]}
